In ChEMBL document CHEMBL3885861, “Open TG-GATES”:

Organism: Rattus norvegicus
Test: Open TG-GATES - Regimen: Daily Repeat
Format: toxicity, organism-based, Sprague-Dawley
Parameters: regimen Daily Repeat, gender Male, age 6 weeks
Details: in vivo, po, 100 mg/kg, […], route gavage, dose level Low; for KIDNEY_L / KIDNEY_R / KIDNEY_TOTAL: tissue Kidney; for LIVER: tissue Liver; for A/G / ALP / ALT / AST / BUN / CRE / Ca / Cl / DBIL / GLC / IP / K / LDH / Na / PL / RALB / TBIL / TC / TG / TP / gamma-GTP: tissue Plasma

SMILES: CC(S)C(=O)NCC(=O)O (stereo unspecified) [TIOPRONIN]
- Lym (tissue Blood, time 28 day): 80.6%
- MCH (tissue Blood, time 28 day): 19.6 pg
- MCHC (tissue Blood, time 28 day): 35.2%
- MCV (tissue Blood, time 28 day): 55.6 fL
- Mono (tissue Blood, time 28 day): 2.6%
- Neu (tissue Blood, time 28 day): 14.6%
- PT (tissue Blood, time 28 day): 15.9 s
- Plat (tissue Blood, time 28 day): 94 x10_4/uL
- RBC (tissue Blood, time 28 day): 775.4 x10_4/ul
- Ret (tissue Blood, time 28 day): 2.8%
- WBC (tissue Blood, time 28 day): 122.4 x10_2/uL
- KIDNEY_L (time 7 day): 1.1 g
- KIDNEY_R (time 7 day): 1.1 g
- KIDNEY_TOTAL (time 7 day): 2.2 g
- KIDNEY_L (time 14 day): 1.2 g
- KIDNEY_R (time 14 day): 1.3 g
- KIDNEY_TOTAL (time 14 day): 2.5 g
- KIDNEY_L (time 28 day): 1.3 g
- KIDNEY_R (time 28 day): 1.4 g
- KIDNEY_TOTAL (time 28 day): 2.7 g
- LIVER (time 7 day): 11.2 g
- LIVER (time 14 day): 14.1 g
- LIVER (time 28 day): 15.3 g
- A/G (time 7 day): 1.1
- ALP (time 7 day): 1665.2 IU/L
- ALT (time 7 day): 37.2 IU/L
- AST (time 7 day): 66.8 IU/L
- BUN (time 7 day): 16.8 mg/dL
- CRE (time 7 day): 0.1 mg/dL
- Ca (time 7 day): 10.6 mg/dL
- Cl (time 7 day): 107.4 meq/L
- DBIL (time 7 day): 0 mg/dL
- GLC (time 7 day): 189.8 mg/dL
- IP (time 7 day): 7.3 mg/dL
- K (time 7 day): 4.2 meq/L
- LDH (time 7 day): 146.2 IU/L
- Na (time 7 day): 141.8 meq/L
- PL (time 7 day): 139.4 mg/dL
- RALB (time 7 day): 3 g/dL
- TBIL (time 7 day): 0.002 mg/dL
- TC (time 7 day): 70.6 mg/dL
- TG (time 7 day): 103.2 mg/dL
- TP (time 7 day): 5.6 g/dL
- gamma-GTP (time 7 day): 2.2 IU/L
- A/G (time 14 day): 1.2
- ALP (time 14 day): 1412.8 IU/L
- ALT (time 14 day): 37.4 IU/L
- AST (time 14 day): 66.6 IU/L
- BUN (time 14 day): 18.2 mg/dL
- CRE (time 14 day): 0.2 mg/dL
- Ca (time 14 day): 10.4 mg/dL
- Cl (time 14 day): 107.4 meq/L
- DBIL (time 14 day): 0 mg/dL
- GLC (time 14 day): 199 mg/dL
- IP (time 14 day): 6.4 mg/dL
- K (time 14 day): 4.3 meq/L
- LDH (time 14 day): 135.6 IU/L
- Na (time 14 day): 141.6 meq/L
- PL (time 14 day): 134 mg/dL
- RALB (time 14 day): 3.1 g/dL
- TBIL (time 14 day): 0.006 mg/dL
- TC (time 14 day): 65.4 mg/dL
- TG (time 14 day): 121 mg/dL
- TP (time 14 day): 5.7 g/dL
- gamma-GTP (time 14 day): 2 IU/L
- A/G (time 28 day): 1.2
- ALP (time 28 day): 1019.8 IU/L
- ALT (time 28 day): 34.6 IU/L
- AST (time 28 day): 58.2 IU/L
- BUN (time 28 day): 19.2 mg/dL
- CRE (time 28 day): 0.2 mg/dL
- Ca (time 28 day): 10.8 mg/dL
- Cl (time 28 day): 106.8 meq/L
- DBIL (time 28 day): 0 mg/dL
- GLC (time 28 day): 191 mg/dL
- IP (time 28 day): 6.2 mg/dL
- K (time 28 day): 4 meq/L
- LDH (time 28 day): 115.8 IU/L
- Na (time 28 day): 142.8 meq/L
- PL (time 28 day): 142.4 mg/dL
- RALB (time 28 day): 3.2 g/dL
- TBIL (time 28 day): 0.008 mg/dL
- TC (time 28 day): 77.4 mg/dL
- TG (time 28 day): 136.4 mg/dL
- TP (time 28 day): 5.9 g/dL
- gamma-GTP (time 28 day): 1.6 IU/L
